Measured values as given in patent publication US20030166721A1, “Choline derivative for the treatment of alzheimer's disease” (priority 2000, published 2003).

Tested on: NBM lesioned rats
Assay: EEG in rats with unilateral AMPA lesion of Meynert nucleus basalis (NBM)
Assay type: in vivo, rat
Protocol: Male Wistar rats (200-250 g), anaesthetised with chloral hydrate (400 mg/kg), were subjected to unilateral lesion of Meynert nucleus basalis (NBM), by intracerebral infusion of α-amino-3-hydroxy-4-isoxazolepropionic acid (AMPA) (1.3 μg/0.5 μl). The animals were divided into four groups, the first two were subjected to NBM lesion; the third was a sham-operated group, and the last was the control group. Two weeks after the lesion, the animals were implanted under general anesthesia, with cortical electrodes (n=4) onto the fronto-parietal region, so as to make it possible, 24 hours later, to record the EEG activity of freely moving animals. EEG activity was continuously monitored and recorded for 60 min by a computerised EEG Berg-Fourier apparatus. Spontaneous activity of the EEG spectrum total power (0.25-16 Hz), as well as that of preselected frequency bands, was recorded for times of 5 min and quantitized (μV).
In order to quantitize AMPA-induced neuronal loss in NBM, coronal serial sections of rat brain were prepared, then stained with toluidine blue to verify the injection site and treated, by immunohistochemical procedure, with 192LR-NGF to quantitize the neuronal loss. Said sections were analysed by a computerized system for image analysis (Axiophoy Zeiss and Vidas Kintron). Statistical analysis of the data from the morphological study was performed by ANOVA followed, if significant, by the post-hoc Tuckey-Kramer test.
In lesioned animals (n=16), with about 45% neuronal loss at the NBM level (FIG. 5), EEG synchronization accompanied with significant increase (P<0.01) in total power (0.25-16 Hz), (170.4±25.8) of EEG spectrum (μV), as well as in higher frequency bands (6-9, 9-12 and 12-16 Hz) (FIG. 7; Tab. 4), was observed. EEG activity of half the NBM lesioned animals was further recorded. After recording the baseline EEG activity, this group of animals was intraperitoneally administered with a PC-1 single dose.

[1] = NBM unilaterally lesioned rats + PC-1 (5 mg i.p.), hemisphere ipsilateral to lesion

## CC(C)(C)C(=O)OCC[N+](C)(C)C.[I-] [PC-1, pivaloylcholine iodide]
NBM lesioned rats (AMPA), 5 mg i.p.
  Effect on EEG spectrum after NBM excitotoxic lesion (FIG. 7): restores both the normal composition of EEG spectrum and the distribution of its frequencies
NBM lesioned rats, 5 mg i.p.
  Duration of the decrease in ECoG spectrum total power: about 15 min
  Time to onset of alert response, EEG desynchronization and decrease in ECoG total power: ≤ 15 min
NBM lesioned rats, 5 mg i.p., P<0.05
  Change in 6 rhythm (0.25-3 Hz): significant decrease
NBM lesioned rats, 5 mg i.p., presumably after PC-1
  ECoG spectrum total power, second value of printed pair: 96±20.3
NBM lesioned rats, 5 mg i.p., presumably before PC-1
  ECoG spectrum total power, first value of printed pair: 150±19.3
[1]
  EEG spectrum band 0.25-3 Hz: 3.4%
  EEG spectrum band 3-6 Hz: 33.3%
  EEG spectrum band 6-9 Hz: 23.5%
  EEG spectrum band 9-12 Hz: 13.6%
  EEG spectrum band 12-16 Hz: 14.6%
